“And” between values parts separate entries of the source, which are not always exact repeats. Identical values can stand only once.
What was measured:
E. coli 2S-19 = test: MIC by doubling dilution, colistin sulfate-susceptible E. coli 2S-19; assay type: cell-based, Escherichia coli; settings: for In vitro minimum inhibitory concentration (MIC) of the substance alone: E. coli 2S-19, colistin sulfate-susceptible, derivatives as hydrochlorides
Shigella sp. 2D89 = test: MIC, resistance reversal by various concentrations of compound 3, Shigella sp. 2D89; settings: colistin sulfate with 0 ppm compound 3, or compound 3 (hydrochloride) in the absence of colistin sulfate
Experimental: (§3) The compound 3 in this embodiment was in the form of a hydrochloride, i.e., the experiments were carried out with a hydrochloride of compound 3.
(§4) In vitro minimum inhibitory concentrations of colistin sulfate against the strains where the cultures respectively comprised various concentrations of compound 3 were also measured.

P. aeruginosa E543 = test: MIC, resistance reversal by various concentrations of compound 3, P. aeruginosa E543; settings: colistin sulfate with 0 ppm compound 3, or compound 3 (hydrochloride) in the absence of colistin sulfate
Experimental: as §3, §4

[1] = test system: various colistin sulfate-resistant Gram-negative bacteria; test: MIC by doubling dilution, summary over resistant species; settings: bound that characterises the tested resistant strains
Experimental: as §3, §4

E. coli 5F-1 [2] = test: MIC, resistance reversal by various concentrations of compound 3, E. coli 5F-1; settings: colistin sulfate with 0 ppm compound 3, or compound 3 (hydrochloride) in the absence of colistin sulfate
Experimental: as §3, §4

E. coli 2G-7 = test: MIC by doubling dilution, colistin sulfate-resistant E. coli 2G-7; settings: for In vitro minimum inhibitory concentration (MIC) of the substance alone: E. coli 2G-7, colistin sulfate-resistant, derivatives as hydrochlorides
Experimental: (§5) In vitro minimum inhibitory concentrations of colistin sulfate against the strains where the cultures respectively comprised 20.0 ppm of the substituted benzylideneguanidine derivatives were also measured.

E. coli 3B-24 = test: MIC by doubling dilution, colistin sulfate-susceptible E. coli 3B-24; assay type: cell-based, Escherichia coli; settings: for In vitro minimum inhibitory concentration (MIC) of the substance alone: E. coli 3B-24, colistin sulfate-susceptible, derivatives as hydrochlorides
weanling piglets [3] = test: Compound 3 in various dosages and colistin sulfate in the feed for weanling piglets; assay type: in vivo, Duroc×Landrace×Large crossbred lean weanling piglets; settings: weanling piglets, only 20 ppm colistin sulfate in creep feed (control group), ten days
Experimental: (§1) 90 28-day-aged Duroc×Landrace×Large crossbred lean weanling piglets similar in weight were divided into 9 groups, 10 piglets in each group. For each group, colistin sulfate and/or various dosages of compound 3 were added into the antibiotic-free creep feed. The piglets were given ad libitum access to feed and water during the experiment. Weight gain, feed efficiency and diarrhea rate of each group within ten days were recorded.

weanling piglets [4] = test: Synergy of compound 3 and colistin sulfate in the feed for weanling piglets; assay type: in vivo, Duroc×Landrace×Large crossbred lean weanling piglets; settings: weanling piglets, only 20 ppm colistin sulfate in creep feed (Control 1, groups 4-6), ten days
Experimental: as §1, with “120” for “90”, “12” for “9”, “and/or” for “and/or various dosages of”

E. coli 5W-7 = test: MIC by doubling dilution, colistin sulfate-susceptible E. coli 5W-7; assay type: cell-based, Escherichia coli; settings: for In vitro minimum inhibitory concentration (MIC) of the substance alone: E. coli 5W-7, colistin sulfate-susceptible, derivatives as hydrochlorides
E. coli 4D-6 = test: MIC by doubling dilution, colistin sulfate-resistant E. coli 4D-6; settings: for In vitro minimum inhibitory concentration (MIC) of the substance alone: E. coli 4D-6, colistin sulfate-resistant, derivatives as hydrochlorides
Experimental: as §5

[5] = test system: colistin sulfate-resistant E. coli strains; test: MIC by doubling dilution, summary over colistin sulfate-resistant strains; settings: bound that characterises the tested resistant E. coli strains
Experimental: as §5

weanling piglets [6] = test: Synergy of derivatives and colistin sulfate in the feed for weanling piglets; assay type: in vivo, Duroc×Landrace×Large crossbred lean weanling piglets; settings: ten days
Experimental: as §1, with “substituted benzylideneguanidine derivatives” for “dosages of compound 3”

[7] = test system: fast-growing yellow feather broilers; test: Combined application of compound 3 and colistin sulfate in chicken feed; assay type: in vivo; settings: broilers, 50 ppm colistin sulfate in feed, 28-day experiment
Experimental: (§2) 800 1-day-aged fast-growing yellow feather broilers were divided into 4 groups, 4 parallels in each group and 50 broilers in each parallel. For each group, colistin sulfate and/or compound 3 were added into the feed. The chicken were kept in cages and given ad libitum access to feed and water during a 28-day experiment. Synergy of compound 3 and colistin sulfate on the chicken in the weight gain and feed efficiency was observed from the result (see Table 10).

E. coli 3H-4 = test: MIC by doubling dilution, colistin sulfate-resistant E. coli 3H-4; settings: for In vitro minimum inhibitory concentration (MIC) of the substance alone: E. coli 3H-4, colistin sulfate-resistant, derivatives as hydrochlorides
Experimental: as §5

E. coli 3Y-9 = test: MIC by doubling dilution, colistin sulfate-susceptible E. coli 3Y-9; assay type: cell-based, Escherichia coli; settings: for In vitro minimum inhibitory concentration (MIC) of the substance alone: E. coli 3Y-9, colistin sulfate-susceptible, derivatives as hydrochlorides
cherry valley ducks = test: Combined application of compound 3 and colistin sulfate in duck feed; assay type: in vivo; settings: 40 ppm colistin sulfate in feed, 21-day experiment
Experimental: as §2, with “cherry valley ducks” for “fast-growing yellow feather broilers”, “groups according to Table 10,” for “groups,”, “ducks” for “broilers”, “ducks” for “chicken”, “21-day” for “28-day”, “11).” for “10).”

E. coli 5F-1 [8] = test: MIC by doubling dilution, colistin sulfate-resistant E. coli 5F-1; settings: for In vitro minimum inhibitory concentration (MIC) of the substance alone: E. coli 5F-1, colistin sulfate-resistant, derivatives as hydrochlorides
Experimental: as §5

Klebsiella sp. 4125 = test: MIC, resistance reversal by various concentrations of compound 3, Klebsiella sp. 4125; settings: colistin sulfate with 0 ppm compound 3, or compound 3 (hydrochloride) in the absence of colistin sulfate
Experimental: as §3, §4

[9] = test system: colistin sulfate-susceptible Escherichia coli strains; test: MIC by doubling dilution, summary over colistin sulfate-susceptible strains; assay type: cell-based; settings: bound that characterises the tested susceptible E. coli strains
[10] = creep feed with only 20 ppm colistin sulfate (control group)
[11] = creep feed with 20 ppm colistin sulfate and 150 ppm derivative (hydrochloride)

For colistin sulfate [reference compound], the “In vitro minimum inhibitory concentration (MIC) of the substance alone” value (E. coli 2S-19) was 2.0 ppm and 2.00 ppm, the “In vitro MIC of the substance alone” value (Shigella sp. 2D89) was 32.00 ppm and the “In vitro MIC of the substance alone” value (P. aeruginosa E543) was 64.00 ppm. For the same molecule, the “MIC value of colistin sulfate against the resistant Gram-negative bacteria” value [1] was “higher than 4.0 ppm”, the “In vitro MIC of the substance alone” value (E. coli 5F-1 [2]) was 128.00 ppm and the “In vitro minimum inhibitory concentration (MIC) of the substance alone” value (E. coli 2G-7) was 64 ppm and 64.0 ppm. For the same molecule, the “In vitro minimum inhibitory concentration (MIC) of the substance alone” value (E. coli 3B-24) was 2.0 ppm and 2.00 ppm, the “Average daily weight gain” value (weanling piglets [3]) was 211 g and the Diarrhea rate (weanling piglets [3]) was 33%. For the same molecule, the Feed conversion ratio (weanling piglets [3]) was 1.672, the “Average daily weight gain” value (weanling piglets [4]) was 215 g and 208 g and 217 g and the Diarrhea rate (weanling piglets [4]) was 31% and 29% and 33%. For the same molecule, the Feed conversion ratio (weanling piglets [4]) was 1.654 and 1.598 and 1.623, the “In vitro minimum inhibitory concentration (MIC) of the substance alone” value (E. coli 5W-7) was 1.0 ppm and 1.00 ppm and the “In vitro minimum inhibitory concentration (MIC) of the substance alone” value (E. coli 4D-6) was 256 ppm and 256.0 ppm. The “MIC value of colistin sulfate against the resistant strains” value [5] was “higher than 4.0 ppm”, the “Average daily weight gain” value (weanling piglets [6]; [10]) was 219 g and the Diarrhea rate (weanling piglets [6]; [10]) was 33%. The Feed conversion ratio (weanling piglets [6]; [10]) was 1.649, the “Average daily weight gain” value [7] was 39.8 g and the Feed conversion ratio [7] was 1.965. The Survival rate [7] was 100%, the “In vitro minimum inhibitory concentration (MIC) of the substance alone” value (E. coli 3H-4) was 64 ppm and 64.0 ppm and the “In vitro minimum inhibitory concentration (MIC) of the substance alone” value (E. coli 3Y-9) was 2.0 ppm and 2.00 ppm. The “Average daily weight gain” value (cherry valley ducks) was 50.1 g, the Feed conversion ratio (cherry valley ducks) was 1.945 and the Survival rate (cherry valley ducks) was 100%. For the same molecule, the “In vitro minimum inhibitory concentration (MIC) of the substance alone” value (E. coli 5F-1 [8]) was 128 ppm and 128.0 ppm, the “In vitro MIC of the substance alone” value (Klebsiella sp. 4125) was 64.00 ppm and the “MIC value of colistin sulfate against the susceptible strains” value [9] was “lower than 4.0 ppm”.
For `CCCCCCCCOc1ccc(C=NNC(=N)NN=Cc2ccc(OCCCCCCCC)cc2)cc1` [Compound 4], the “In vitro minimum inhibitory concentration (MIC) of the substance alone” value (E. coli 2S-19) was over 800 ppm, the “In vitro MIC of colistin sulfate in the presence of the substituted benzylideneguanidine derivative” value (“In vitro MIC of colistin sulfate” for short) (E. coli 2S-19; E. coli 2S-19, culture comprised 20.0 ppm of the derivative (hydrochloride), colistin sulfate serially diluted) was 1.00 ppm and the “In vitro minimum inhibitory concentration (MIC) of the substance alone” value (E. coli 2G-7) was over 800 ppm. For the same molecule, the “In vitro MIC of colistin sulfate” value (E. coli 2G-7; E. coli 2G-7, resistant, culture comprised 20.0 ppm of the derivative (hydrochloride)) was 4.0 ppm, the “In vitro minimum inhibitory concentration (MIC) of the substance alone” value (E. coli 3B-24) was over 800 ppm and the “In vitro MIC of colistin sulfate” value (E. coli 3B-24; E. coli 3B-24, culture comprised 20.0 ppm of the derivative (hydrochloride), colistin sulfate serially diluted) was 1.00 ppm. For the same molecule, the “In vitro minimum inhibitory concentration (MIC) of the substance alone” value (E. coli 5W-7) was over 800 ppm, the “In vitro MIC of colistin sulfate” value (E. coli 5W-7; E. coli 5W-7, culture comprised 20.0 ppm of the derivative (hydrochloride), colistin sulfate serially diluted) was 0.50 ppm and the “In vitro minimum inhibitory concentration (MIC) of the substance alone” value (E. coli 4D-6) was over 800 ppm. The “In vitro MIC of colistin sulfate” value (E. coli 4D-6; E. coli 4D-6, resistant, culture comprised 20.0 ppm of the derivative (hydrochloride)) was 16 ppm, the “Average daily weight gain” value (weanling piglets [6]; [11]) was 239 g and the Diarrhea rate (weanling piglets [6]; [11]) was 19%. The Feed conversion ratio (weanling piglets [6]; [11]) was 1.532, the “In vitro minimum inhibitory concentration (MIC) of the substance alone” value (E. coli 3H-4) was over 800 ppm and the “In vitro MIC of colistin sulfate” value (E. coli 3H-4; E. coli 3H-4, resistant, culture comprised 20.0 ppm of the derivative (hydrochloride)) was 4 ppm. For the same molecule, the “In vitro minimum inhibitory concentration (MIC) of the substance alone” value (E. coli 3Y-9) was over 800 ppm, the “In vitro MIC of colistin sulfate” value (E. coli 3Y-9; E. coli 3Y-9, culture comprised 20.0 ppm of the derivative (hydrochloride), colistin sulfate serially diluted) was 1.00 ppm and the “In vitro minimum inhibitory concentration (MIC) of the substance alone” value (E. coli 5F-1 [8]) was over 800 ppm. The “In vitro MIC of colistin sulfate” value (E. coli 5F-1 [8]; E. coli 5F-1, resistant, culture comprised 20.0 ppm of the derivative (hydrochloride)) was 8.0 ppm.

From patent US11116735B2, “Use of substituted benzylideneguanidine derivatives as synergists for polymyxin antibiotics” (GUANGZHOU INSIGHTER BIOTECHNOLOGY CO., LTD., priority 2015, dated 2021)
